Where two headings read alike, the source gives them in different places.
Tests used:
Format in all cases: in vivo
[1] = test system: lambsquarters (Chenopodium album); assay: Test B pre/postemergence; details: for pest or weed control at 62 g/ha: Chenopodium album
In short: (§1)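 Following sowing, compounds in a surfactant-bearing non-phytotoxic solvent were applied preemergence; emerged plants 2 to 18 cm high got postemergence treatment concurrently. Evaluation: 13 to 15 days later, greenhouse, 0–100 visual scale.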

[2] = test system: Surinam grass (Brachiaria decumbens); assay: Test B pre/postemergence; details: for pest or weed control at 62 g/ha: Urochloa decumbens
In short: as §1

[3] = test system: barnyardgrass (Echinochloa crus-galli); assay: Test B pre/postemergence; details: for pest or weed control at 62 g/ha: Echinochloa crus-galli
In short: as §1

[4] = test system: pigweed (Amaranthus retroflexus); assay: Test B pre/postemergence; details: for pest or weed control at 62 g/ha: Amaranthus retroflexus
In short: as §1

[5] = test system: velvetleaf (Abutilon theophrasti); assay: Test B pre/postemergence; details: for pest or weed control at 62 g/ha: Abutilon theophrasti
In short: as §1

[6] = test system: wheat (Triticum aestivum); assay: Test B pre/postemergence; details: for plant injury at 62 g/ha: Triticum aestivum
In short: as §1

[7] = test system: crabgrass (Digitaria sanguinalis); assay: Test B pre/postemergence; details: for pest or weed control at 62 g/ha: Digitaria sanguinalis
In short: as §1

[8] = test system: giant foxtail (Setaria faberii); assay: Test B pre/postemergence; details: for pest or weed control at 62 g/ha: Setaria faberi
In short: as §1

corn (Zea mays) = assay: Test B pre/postemergence
In short: as §1

[9] = test system: morningglory (Ipomoea coccinea); assay: Test B pre/postemergence; details: for pest or weed control at 62 g/ha: Ipomoea
In short: as §1

[10] = test system: cocklebur (Xanthium strumarium); assay: Test B pre/postemergence; details: for pest or weed control at 62 g/ha: Xanthium strumarium
In short: as §1

wild oat (Avena fatua) = assay: Test B postemergence
In short: as §1

[11] = test system: blackgrass (Alopecurus myosuroides); assay: Test B postemergence
In short: as §1

[12] = test system: duck salad (Heteranthera limosa); assay: Test B flooded paddy test; details: Flood, scale 0 to 100
In short: (§2)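 Plants were grown to the 2-leaf stage before treatment, then kept in a greenhouse for 13 to 15 days. Injury was rated visually against untreated controls on a 0 to 100 scale, where 0 is no effect and 100 is complete control.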

[13] = test system: barnyardgrass (Echinochloa crus-galli); assay: Test B flooded paddy test; details: Flood
In short: as §2

[14] = test system: umbrella sedge (Cyperus difformis); assay: Test B flooded paddy test; details: Flood, scale 0 to 100
In short: as §2

rice (Oryza sativa) = assay: Test B flooded paddy test; details: Flood, scale 0 to 100
In short: as §2

[15] = Postemergence, 62 g ai/ha, scale 0 to 100 (0 no effect, 100 complete control)
[16] = Postemergence, 500 g ai/ha, scale 0 to 100
[17] = Preemergence, 62 g ai/ha, scale 0 to 100, 0 no effect, 100 complete control
[18] = Preemergence, 500 g ai/ha, scale 0 to 100 (0 no effect, 100 complete control)
[19] = 62 g ai/ha, scale 0 to 100 (0 no effect, 100 complete control)
[20] = Postemergence, 125 g ai/ha, scale 0 to 100 (0 no effect, 100 complete control)
[21] = Preemergence, 125 g ai/ha, scale 0 to 100 (0 no effect, 100 complete control)
[22] = 125 g ai/ha, scale 0 to 100 (0 no effect, 100 complete control)

SMILES: CCOC(=O)C(Cl)c1nc(C2CC2)nc(N)c1Br (stereo not drawn) [Compound 31]
- Lambsquarters plant response rating [1, 15]: 40
- Plant response rating, Lambsquarters [1, 16]: 70
- Plant response rating, Lambsquarters [1, 17]: 90
- Lambsquarters plant response rating [1, 18]: 100
- Surinam Grass plant response rating [2, 15]: 0
- Plant response rating, Surinam Grass [2, 16]: 0
- Plant response rating, Surinam Grass [2, 17]: 20
- Surinam Grass plant response rating [2, 18]: 60
- Barnyardgrass plant response rating [3, 15]: 0
- Plant response rating, Barnyardgrass [3, 16]: 0
- Plant response rating, Barnyardgrass [3, 17]: 20
- Barnyardgrass plant response rating [3, 18]: 70
- Pigweed plant response rating [4, 15]: 20
- Plant response rating, Pigweed [4, 16]: 50
- Plant response rating, Pigweed [4, 17]: 90
- Pigweed plant response rating [4, 18]: 100
- Velvetleaf plant response rating [5, 15]: 10
- Plant response rating, Velvetleaf [5, 16]: 60
- Plant response rating, Velvetleaf [5, 17]: 80
- Velvetleaf plant response rating [5, 18]: 90
- Wheat plant response rating [6, 15]: 0
- Plant response rating, Wheat [6, 16]: 0
- Plant response rating, Wheat [6, 17]: 40
- Wheat plant response rating [6, 18]: 70
- Crabgrass plant response rating [7, 15]: 0
- Plant response rating, Crabgrass [7, 16]: 30
- Plant response rating, Crabgrass [7, 17]: 10
- Crabgrass plant response rating [7, 18]: 80
- Foxtail, Giant plant response rating [8, 15]: 0
- Plant response rating, Foxtail, Giant [8, 16]: 0
- Plant response rating, Foxtail, Giant [8, 17]: 10
- Foxtail, Giant plant response rating [8, 18]: 80
- Corn plant response rating (corn (Zea mays); [15]): 0
- Plant response rating, Corn (corn (Zea mays); [16]): 0
- Plant response rating, Corn (corn (Zea mays); [17]): 0
- Corn plant response rating (corn (Zea mays); [18]): 40
- Morningglory plant response rating [9, 15]: 50
- Plant response rating, Morningglory [9, 16]: 70
- Plant response rating, Morningglory [9, 17]: 90
- Morningglory plant response rating [9, 18]: 100
- Cocklebur plant response rating [10, 15]: 70
- Plant response rating, Cocklebur [10, 16]: 80
- Plant response rating, Cocklebur [10, 17]: 90
- Cocklebur plant response rating [10, 18]: 100
- Oat, Wild plant response rating (wild oat (Avena fatua); [19]): 0
- Plant response rating, Oat, Wild (wild oat (Avena fatua); 500 g ai/ha, scale 0 to 100): 0
- Blackgrass plant response rating [11, 19]: 0
- Plant response rating, Blackgrass ([11]; 500 g ai/ha, scale 0 to 100): 0
- Plant response rating, Ducksalad ([12]; 1000 g ai/ha): 60
- Plant response rating, Barnyardgrass ([13]; 1000 g ai/ha, scale 0 (no effect) to 100 (complete control)): 30
- Plant response rating, Sedge, Umbrella ([14]; 1000 g ai/ha): 0
- Plant response rating, Rice (rice (Oryza sativa); 1000 g ai/ha): 20

SMILES: Nc1nc(C2CC2)nc(C(=O)[O-])c1Br.[Na+] [Compound 113, 6-amino-5-bromo-2-cyclopropyl-4-pyrimidinecarboxylic acid monosodium salt]
- pest or weed control at 62 g/ha ([1]; post-emergence, Postemergence, 62 g ai/ha, scale 0 to 100 (0 no effect, 100 complete control), read-out: Lambsquarters plant response rating): 80%
- pest or weed control at 62 g/ha ([1]; pre-emergence, Preemergence, 62 g ai/ha, scale 0 to 100, 0 no effect, 100 complete control, read-out: Plant response rating, Lambsquarters): 70%
- Lambsquarters plant response rating [1, 20]: 90
- Plant response rating, Lambsquarters [1, 21]: 80
- Surinam Grass plant response rating [2, 20]: 80
- Plant response rating, Surinam Grass [2, 21]: 60
- pest or weed control at 62 g/ha ([2]; post-emergence, Postemergence, 62 g ai/ha, scale 0 to 100 (0 no effect, 100 complete control), read-out: Surinam Grass plant response rating): 30%
- pest or weed control at 62 g/ha ([2]; pre-emergence, Preemergence, 62 g ai/ha, scale 0 to 100, 0 no effect, 100 complete control, read-out: Plant response rating, Surinam Grass): 20%
- pest or weed control at 62 g/ha ([3]; post-emergence, Postemergence, 62 g ai/ha, scale 0 to 100 (0 no effect, 100 complete control), read-out: Barnyardgrass plant response rating): 50%
- pest or weed control at 62 g/ha ([3]; pre-emergence, Preemergence, 62 g ai/ha, scale 0 to 100 (0 no effect, 100 complete control), read-out: Plant response rating, Barnyardgrass): 0%
- Barnyardgrass plant response rating [3, 20]: 80
- Plant response rating, Barnyardgrass [3, 21]: 20
- pest or weed control at 62 g/ha ([4]; post-emergence, Postemergence, 62 g ai/ha, scale 0 to 100 (0 no effect, 100 complete control), read-out: Pigweed plant response rating): 70%
- pest or weed control at 62 g/ha ([4]; pre-emergence, Preemergence, 62 g ai/ha, scale 0 to 100, 0 no effect, 100 complete control, read-out: Plant response rating, Pigweed): 70%
- Pigweed plant response rating [4, 20]: 90
- Plant response rating, Pigweed [4, 21]: 90
- pest or weed control at 62 g/ha ([5]; post-emergence, Postemergence, 62 g ai/ha, scale 0 to 100 (0 no effect, 100 complete control), read-out: Velvetleaf plant response rating): 60%
- pest or weed control at 62 g/ha ([5]; pre-emergence, Preemergence, 62 g ai/ha, scale 0 to 100, 0 no effect, 100 complete control, read-out: Plant response rating, Velvetleaf): 80%
- Velvetleaf plant response rating [5, 20]: 80
- Plant response rating, Velvetleaf [5, 21]: 90
- Wheat plant response rating [6, 20]: 50
- Plant response rating, Wheat [6, 21]: 60
- plant injury at 62 g/ha ([6]; post-emergence, Postemergence, 62 g ai/ha, scale 0 to 100 (0 no effect, 100 complete control), read-out: Wheat plant response rating): 30%
- plant injury at 62 g/ha ([6]; pre-emergence, Preemergence, 62 g ai/ha, scale 0 to 100 (0 no effect, 100 complete control), read-out: Plant response rating, Wheat): 10%
- pest or weed control at 62 g/ha ([7]; post-emergence, Postemergence, 62 g ai/ha, scale 0 to 100 (0 no effect, 100 complete control), read-out: Crabgrass plant response rating): 20%
- pest or weed control at 62 g/ha ([7]; pre-emergence, Preemergence, 62 g ai/ha, scale 0 to 100, 0 no effect, 100 complete control, read-out: Plant response rating, Crabgrass): 40%
- Crabgrass plant response rating [7, 20]: 40
- Plant response rating, Crabgrass [7, 21]: 70
- Foxtail, Giant plant response rating [8, 20]: 50
- Plant response rating, Foxtail, Giant [8, 21]: 10
- pest or weed control at 62 g/ha ([8]; post-emergence, Postemergence, 62 g ai/ha, scale 0 to 100 (0 no effect, 100 complete control), read-out: Foxtail, Giant plant response rating): 20%
- pest or weed control at 62 g/ha ([8]; pre-emergence, Preemergence, 62 g ai/ha, scale 0 to 100, 0 no effect, 100 complete control, read-out: Plant response rating, Foxtail, Giant): 0%
- Corn plant response rating (corn (Zea mays); [20]): 40
- Plant response rating, Corn (corn (Zea mays); [21]): 20
- plant injury at 62 g/ha (corn (Zea mays); Zea mays, post-emergence, Postemergence, 62 g ai/ha, scale 0 to 100 (0 no effect, 100 complete control), read-out: Corn plant response rating): 10%
- Corn plant response rating (crop injury, 0 = no effect, 100 = complete kill) at 62 g/ha (corn (Zea mays); Zea mays, pre-emergence, Preemergence, 62 g ai/ha, scale 0 to 100, 0 no effect, 100 complete control): 0%
- pest or weed control at 62 g/ha ([9]; post-emergence, Postemergence, 62 g ai/ha, scale 0 to 100 (0 no effect, 100 complete control), read-out: Morningglory plant response rating): 90%
- pest or weed control at 62 g/ha ([9]; pre-emergence, Preemergence, 62 g ai/ha, scale 0 to 100, 0 no effect, 100 complete control, read-out: Plant response rating, Morningglory): 50%
- Morningglory plant response rating [9, 20]: 90
- Plant response rating, Morningglory [9, 21]: 60
- Cocklebur plant response rating [10, 20]: 90
- Plant response rating, Cocklebur [10, 21]: 80
- pest or weed control at 62 g/ha ([10]; post-emergence, Postemergence, 62 g ai/ha, scale 0 to 100 (0 no effect, 100 complete control), read-out: Cocklebur plant response rating): 90%
- pest or weed control at 62 g/ha ([10]; pre-emergence, Preemergence, 62 g ai/ha, scale 0 to 100, 0 no effect, 100 complete control, read-out: Plant response rating, Cocklebur): 70%
- Oat, Wild plant response rating (wild oat (Avena fatua); [22]): 50
- pest or weed control at 62 g/ha (wild oat (Avena fatua); Avena fatua, post-emergence, 62 g ai/ha, scale 0 to 100 (0 no effect, 100 complete control), read-out: Oat, Wild plant response rating): 40%
- Blackgrass plant response rating [11, 22]: 40
- pest or weed control at 62 g/ha ([11]; Alopecurus myosuroides, post-emergence, 62 g ai/ha, scale 0 to 100 (0 no effect, 100 complete control), read-out: Blackgrass plant response rating): 30%
- pest or weed control at 125 g/ha ([12]; Heteranthera limosa, 125 g ai/ha, read-out: Plant response rating, Ducksalad): 0%
- pest or weed control at 500 g/ha ([12]; Heteranthera limosa, 500 g ai/ha, read-out: Plant response rating, Ducksalad): 0%
- pest or weed control at 125 g/ha ([13]; Echinochloa crus-galli, 125 g ai/ha, scale 0 to 100, read-out: Plant response rating, Barnyardgrass): 0%
- pest or weed control at 500 g/ha ([13]; Echinochloa crus-galli, 500 g ai/ha, scale 0 to 100, read-out: Plant response rating, Barnyardgrass): 0%
- pest or weed control at 125 g/ha ([14]; Cyperus difformis, 125 g ai/ha, read-out: Plant response rating, Sedge, Umbrella): 0%
- pest or weed control at 500 g/ha ([14]; Cyperus difformis, 500 g ai/ha, read-out: Plant response rating, Sedge, Umbrella): 0%
- plant injury at 125 g/ha (rice (Oryza sativa); Oryza sativa, 125 g ai/ha, read-out: Plant response rating, Rice): 0%
- plant injury at 500 g/ha (rice (Oryza sativa); Oryza sativa, 500 g ai/ha, read-out: Plant response rating, Rice): 0%

From patent publication US8802597B2, “Herbicidal pyrimidines” (E I du Pont de Nemours and Company, priority 2003, dated 2014)
